Measured values published in patent publication US20250059172A1, “INDAZOLE COMPOUND AND PHARMACEUTICAL” (NIPPON SHINYAKU CO., LTD., priority 2021, published 2025).
Structures can show the parent of a compound that is named as a salt.

Key:
human mPGES-1 = human mPGES-1 (Homo sapiens (Human), UniProt O14684); test: mPGES-1 inhibitory activity test; type: biochemical; conditions: for inhibition at 0.01 µM: 10 nM test compound; for inhibition at 0.1 µM: 100 nM test compound; for IC50: microsomes of CHO-K1 cells expressing human mPGES-1, PGH2 1 μM, PGE2 by HTRF, read-out: mPGES-1 inhibition (IC50 nM)
Summary of the method: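 PGE2 formation was quantified by HTRF and reported as percent inhibition at 10 and 100 nM compound or as IC50. The 60-second reaction at 4° C used 1 μM PGH2, after a 20-minute 4° C preincubation of compound (1% DMSO final) with glutathione-supplemented (2.5 mM, pH 7.4) microsomes. The microsomes were from transiently transfected CHO-K1 cells expressing human mPGES-1.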

human A549 cells = test: Inhibition test of PGE2 production using human A549 cells; type: cell-based; conditions: IL-1β stimulated A549 cells, 24 h, PGE2 by HTRF, read-out: A549 cell inhibition of PGE2 production IC50
Summary of the method: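 PGE2 (HTRF) and PGF2a (EIA) were quantified in medium after 24 h, 37°C IL-1β stimulation (5 ng/well) of human A549 cells that had received test compound 60 min beforehand (0.1% DMSO, 3% FBS RPMI). IC50 relative to the window between IL-1β-stimulated and unstimulated controls.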

Chain of human mPGES-1 (O14684 whole entry): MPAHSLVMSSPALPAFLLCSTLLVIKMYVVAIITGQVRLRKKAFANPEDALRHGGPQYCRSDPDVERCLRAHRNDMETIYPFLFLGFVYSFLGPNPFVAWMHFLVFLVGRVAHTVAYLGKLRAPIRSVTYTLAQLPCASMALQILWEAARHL

| inhibition at 0.01 µM (human mPGES-1) | IC50 (human A549 cells) | inhibition at 0.1 µM (human mPGES-1) | IC50 (human mPGES-1) | SMILES |
| --- | --- | --- | --- | --- |
| 68% | 102 nM | – | – | O=C(Nc1cccc2c1cnn2-c1cscn1)c1cc(CNC(=O)C2CCCC2)ccc1Cl [Example 188, 2-Chloro-5-{[(cyclopentylcarbonyl)amino]methyl}-N-[1-(1,3-thiazol-4-yl)-1H-indazol-4-yl]benzamide] |
| – | 9.6 nM | 100% | – | CC(C)(CO)C(=O)NCc1ccc(Cl)c(C(=O)Nc2cccc3c2cnn3-c2cncc(C(F)(F)F)c2)c1 [Example 171, 2-Chloro-5-{[(3-hydroxy-2,2-dimethylpropanoyl)amino]methyl}-N-{1-[5-(trifluoromethyl)pyridin-3-yl]-1H-indazol-4-yl}benzamide] |
| – | 5.7 nM | – | 19.8 nM | CC(C)(C)C(=O)NCc1ccc(Cl)c(C(=O)Nc2cccc3c2cnn3-c2cncc(C(F)(F)F)c2)c1 [Example 57, 2-Chloro-5-{[(2,2-dimethylpropanoyl)amino]methyl}-N-{1-[5-(trifluoromethyl)pyridin-3-yl]-1H-indazol-4-yl}benzamide] |
| – | 17.7 nM | – | 2.2 nM | COc1ccccc1Cn1ncc2c(NC(=O)c3cc(CNC(=O)C(C)(C)C)ccc3Cl)cccc21 [Example 90, 2-Chloro-5-{[(2,2-dimethylpropanoyl)amino]methyl}-N-[1-(2-methoxybenzyl)-1H-indazol-4-yl]benzamide] |
| 53% | 1.2 nM | 92% | – | O=C(Nc1cccc2c1cnn2-c1cncc(C(F)(F)F)c1)c1cc(CNC(=O)C2(C(F)(F)F)CC2)ccc1Cl [Example 168, 2-Chloro-5-[({[1-(trifluoromethyl)cyclopropyl]carbonyl}amino)methyl]-N-{1-[5-(trifluoromethyl)pyridin-3-yl]-1H-indazol-4-yl}benzamide] |
| 99% | 2 nM | 94% | – | COc1ccc(-n2ncc3c(NC(=O)c4cc(CNC(=O)C5CCCC5)ccc4Cl)cccc32)cc1C(F)(F)F [Example 262, 2-Chloro-5-{[(cyclopentylcarbonyl)amino]methyl}-N-{1-[4-methoxy-3-(trifluoromethyl)phenyl]-1H-indazol-4-yl}benzamide] |
| – | 20.7 nM | – | 3.1 nM | CC(C)n1ncc2c(NC(=O)c3cc(CNC(=O)C(C)(C)C)ccc3Cl)cccc21 [Example 102, 2-Chloro-5-{[(2,2-dimethylpropanoyl)amino]methyl}-N-[1-(propan-2-yl)-1H-indazol-4-yl]benzamide] |
| 50% | 3 nM | 90% | – | COc1ccc(-n2ncc3c(NC(=O)c4cc(CNC(=O)C5(C(F)(F)F)CC5)ccc4Cl)cccc32)cn1 [Example 271, 2-Chloro-N-[1-(6-methoxypyridin-3-yl)-1H-indazol-4-yl]-5-[({[1-(trifluoromethyl)cyclopropyl]carbonyl}amino)methyl]benzamide] |
| 64% | 379 nM | – | – | CCn1ncc2c(NC(=O)c3cc(CNC(=O)CC(C)(C)C)ccc3Cl)cccc21 [Example 210, 2-Chloro-5-{[(3,3-dimethylbutanoyl)amino]methyl}-N-(1-ethyl-1H-indazol-4-yl)benzamide] |
| – | 40.6 nM | – | 5.5 nM | Cn1ncc2c(NC(=O)c3cc(CNC(=O)C(C)(C)C)ccc3Cl)cccc21 [Example 111, 2-Chloro-5-{[(2,2-dimethylpropanoyl)amino]methyl}-N-(1-methyl-1H-indazol-4-yl)benzamide] |
| 67% | 299 nM | 75% | – | Cc1ccc(-n2ncc3c(NC(=O)c4cc(CNS(=O)(=O)C5CC5)ccc4Cl)cccc32)nn1 [Example 253, 2-Chloro-5-{[(cyclopropylsulfonyl)amino]methyl}-N-[1-(6-methylpyridazin-3-yl)-1H-indazol-4-yl]benzamide] |
| – | 91.1 nM | – | 12.9 nM | Cn1ncc2c(NC(=O)c3cc(CNC(=O)C4CC4)ccc3Cl)cccc21 [Example 112, 2-Chloro-5-{[(cyclopropylcarbonyl)amino]methyl}-N-(1-methyl-1H-indazol-4-yl)benzamide] |
| – | 5.8 nM | – | 1.9 nM | CC(C)(CO)C(=O)NCc1ccc(Cl)c(C(=O)Nc2cccc3c2cnn3-c2ccc(C(F)(F)F)cc2)c1 [Example 28, 2-Chloro-5-{[(3-hydroxy-2,2-dimethylpropanoyl)amino]methyl}-N-{1-[4-(trifluoromethyl)phenyl]-1H-indazol-4-yl}benzamide] |
| 98% | 5.1 nM | – | – | O=C(Nc1cccc2c1cnn2-c1cccc(OC(F)(F)F)c1)c1cc(CNC(=O)C2(C(F)(F)F)CC2)ccc1Cl [Example 123, 2-Chloro-N-{1-[3-(trifluoromethoxy)phenyl]-1H-indazol-4-yl}-5-[({[1-(trifluoromethyl)cyclopropyl]carbonyl}amino)methyl]benzamide] |
| – | 13.5 nM | – | 2.3 nM | CCCC(=O)NCc1ccc(Cl)c(C(=O)Nc2cccc3c2cnn3-c2ccc(C(F)(F)F)cc2)c1 [Example 43, 5-[(Butanoylamino)methyl]-2-chloro-N-{1-[4-(trifluoromethyl)phenyl]-1H-indazol-4-yl}benzamide] |
| – | 4.5 nM | – | 1.5 nM | O=C(Nc1cccc2c1cnn2-c1ccc(C(F)(F)F)cc1)c1cc(CNC(=O)C2CC2)ccc1Cl [Example 1, 2-Chloro-5-{[(cyclopropylcarbonyl)amino]methyl}-N-{1-[4-(trifluoromethyl)phenyl]-1H-indazol-4-yl}benzamide] |
| 100% | 14.6 nM | – | – | O=C(Nc1cccc2c1cnn2-c1ccc(F)cc1)c1cc(CNS(=O)(=O)C2CC2)ccc1Cl [Example 157, 2-Chloro-5-{[(cyclopropylsulfonyl)amino]methyl}-N-[1-(4-fluorophenyl)-1H-indazol-4-yl]benzamide] |
| – | 8.1 nM | – | 4.7 nM | CC(C)(C)C(=O)NCc1ccc(Cl)c(C(=O)Nc2cccc3c2cnn3CCCc2ccccc2)c1 [Example 101, 2-Chloro-5-{[(2,2-dimethylpropanoyl)amino]methyl}-N-[1-(3-phenylpropyl)-1H-indazol-4-yl]benzamide] |
| – | 688 nM | – | 9.6 nM | O=C(Nc1cccc2c1cnn2-c1ccncc1)c1cc(CNC(=O)C2CC2)ccc1Cl [Example 5, 2-Chloro-5-{[(cyclopropylcarbonyl)amino]methyl}-N-[1-(pyridin-4-yl)-1H-indazol-4-yl]benzamide hydrochloride] |
| – | 1 nM | – | 6.1 nM | CCC(=O)NCc1ccc(Cl)c(C(=O)Nc2cccc3c2cnn3-c2ccc(C(F)(F)F)cc2)c1 [Example 19, 2-Chloro-5-[(propanoylamino)methyl]-N-{1-[4-(trifluoromethyl)phenyl]-1H-indazol-4-yl}benzamide] |
| – | 46.4 nM | – | 57.1 nM | CN(C)CC(=O)NCc1ccc(Cl)c(C(=O)Nc2cccc3c2cnn3-c2ccc(C(F)(F)F)cc2)c1 [Example 24, 2-Chloro-5-{[(N,N-dimethylglycyl)amino]methyl}-N-{1-[4-(trifluoromethyl)phenyl]-1H-indazol-4-yl}benzamide hydrochloride] |
